Measured values published in ChEMBL document CHEMBL3091293, “The synthesis and biodistribution of [(11)C]metformin as a PET probe to study hepatobiliary transport mediated by the multi-drug and toxin extrusion transporter 1 (MATE1) in vivo” (Bioorg Med Chem, 2013).

Key:
Plasma [1] = test: Unbound plasma concentration in ddY mouse at 5 mg/kg; assay type: ADME, organism-based; set-up: dose 5 mg/kg; conditions: in vivo
[2] = target: T1, Solute carrier family 22 member 1 (Mus musculus, UniProt O08966); test: Inhibition of mouse Oct1 transfected in HEK293 cells assessed as uptake of [14C]-TEA preincubated for 15 mins by liquid scintillation counting analysis; assay type: cell-based
T1 sequence (O08966 whole entry): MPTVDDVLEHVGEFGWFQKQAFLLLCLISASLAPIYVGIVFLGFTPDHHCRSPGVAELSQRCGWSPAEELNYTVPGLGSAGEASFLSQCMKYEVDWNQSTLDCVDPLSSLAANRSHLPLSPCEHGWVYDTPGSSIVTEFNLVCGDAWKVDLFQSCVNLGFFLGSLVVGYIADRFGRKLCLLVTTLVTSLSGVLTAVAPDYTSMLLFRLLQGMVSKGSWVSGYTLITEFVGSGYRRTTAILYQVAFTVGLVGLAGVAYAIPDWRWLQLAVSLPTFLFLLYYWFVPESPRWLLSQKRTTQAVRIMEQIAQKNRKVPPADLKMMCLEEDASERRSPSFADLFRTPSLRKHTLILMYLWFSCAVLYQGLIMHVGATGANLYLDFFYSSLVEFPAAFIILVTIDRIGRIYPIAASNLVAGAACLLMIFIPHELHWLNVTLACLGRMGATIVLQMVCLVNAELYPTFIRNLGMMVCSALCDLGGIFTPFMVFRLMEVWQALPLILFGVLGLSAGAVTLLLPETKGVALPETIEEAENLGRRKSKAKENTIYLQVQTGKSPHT

[3] = target: T2, Multidrug and toxin extrusion protein 1 (Mus musculus, UniProt Q8K0H1); test: Inhibition of mouse Mate1 transfected in HEK293 cells assessed as uptake of [14C]-TEA preincubated for 15 mins by liquid scintillation counting analysis; assay type: cell-based
T2 sequence (Q8K0H1 whole entry): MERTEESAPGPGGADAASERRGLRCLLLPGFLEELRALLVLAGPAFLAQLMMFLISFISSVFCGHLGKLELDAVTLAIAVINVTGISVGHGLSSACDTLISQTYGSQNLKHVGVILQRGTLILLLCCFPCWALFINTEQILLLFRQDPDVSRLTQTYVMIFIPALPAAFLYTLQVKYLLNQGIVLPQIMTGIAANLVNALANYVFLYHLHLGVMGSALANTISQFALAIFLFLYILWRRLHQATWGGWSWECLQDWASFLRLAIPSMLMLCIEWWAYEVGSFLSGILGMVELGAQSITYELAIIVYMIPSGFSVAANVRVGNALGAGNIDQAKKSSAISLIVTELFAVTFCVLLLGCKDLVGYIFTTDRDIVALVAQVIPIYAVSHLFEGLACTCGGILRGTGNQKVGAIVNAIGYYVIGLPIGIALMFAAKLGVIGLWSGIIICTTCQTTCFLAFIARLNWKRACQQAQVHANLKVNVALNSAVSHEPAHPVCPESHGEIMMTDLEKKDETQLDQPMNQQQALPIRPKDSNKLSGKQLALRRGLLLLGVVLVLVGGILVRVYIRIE

Plasma [4] = test: Plasma concentration in ddY mouse at 5 mg/kg; assay type: ADME, organism-based; set-up: dose 5 mg/kg; conditions: in vivo

SMILES: CCc1nc(N)nc(N)c1-c1ccc(Cl)cc1 [PYRIMETHAMINE]
- Cp(f) (Plasma [1]): 0.3 µM
- Ki [2]: 3600 nM
- Ki [3]: 145 nM
- concentration (Plasma [4]): 3.7 µM
